Laboratory results published in patent US6699834B1, “Method for treating cancer” (University of Maryland Biotechnology Institute, priority 1997, dated 2004).
Bridge positions count the residues as written; N and C are the ends. Ends that are not written are not given here.

Assays:
[1] = tested on: Kaposi's Sarcoma induced in mice; assay: Kaposi's Sarcoma tumors induced in mice by KS Y-1 cells; format: in vivo; conditions: for KS in vivo: inhibition of Kaposi's Sarcoma induced in mice; for effect on KS tumors in mice (in words): mouse, in vivo
Procedure: The effects of the peptides on KS tumor cells were also evaluated in vivo in the KS mouse model. To induce KS tumors in the mice, 1×10^6/ml KS Y-1 cells in 50 μl PBS or saline were injected subcutaneously into immunodeficient mice (beige-XID-BNX mice). […] Methods for detection of apoptosis (from tissue biopsies) were used, as described in Lunardi-Iskandar et al.(1995, Nature 375:64-68). Briefly, the samples were stained in situ for the presence of cells with DNA fragmentation. Tissue slides from formalin-fixed tumors were treated with terminal deoxynucleotide transferase for extension of DNA ends (hydroxyl 3′) and incorporation of digoxigenin-11-dUTP according to the manufacturer's instructions (Oncor, Gaithersburg, Md.). Anti-digoxigenin antibody conjugated with the enzyme peroxidase allowed detection of apoptotic cells, which stain brown, whereas viable cells stain blue.
Certain fractions were tested for activity in reducing Kaposi's Sarcoma lesions in the Kaposi's Sarcoma mouse model as described herein. In this assay, starting one week after injection of the KS Y-1 cells to induce Kaposi's sarcoma formation, the mice were injected subcutaneously with 100 IU hCG. […] After one week of the week of treatment with the hCG fractions, the KS lesions were examined for cell apoptosis and regression as described herein.
Certain fractions of the APL™ hCG and early pregnancy urine were assayed for their ability to elicit apoptosis in Kaposi's Sarcoma lesions induced by injection of KS Y-1 cells in mice (n=3 mice for each treatment). The mice were administered 100 μl subcutaneously of the particular fraction each day for one week.

[2] = tested on: hematopoietic progenitor cells; assay: Hematopoietic progenitor clonogenic assays (CFU-GEMM, BFU-e, CFU-GM); format: cell-based, human; conditions: for Pro-hematopoiesis in vitro Enhancement: relative increase of hematopoietic colony cell number, hCG preparations 200 IU/ml, subunits and peptides 100 μg/ml
Procedure: The effect of hCG preparations and peptides was assayed on hematopoietic progenitor cells in vitro: Hematopoietic progenitor cells (2×10^5 cell/ml) were isolated from normal bone marrow and cord blood and seeded in methylcellulose. […] The hCG preparations were administered at 200 IU/ml and the β- and α-subunits and peptides were administered at 100 μg/ml. The native commercial preparation of hCG (APL™, Wyeth Ayerst) was pre-tested for anti-HIV and anti-KS activities. Aggregates containing more than 50 cells after 10 days of culture were counted as colonies.

[3] = tested on: HIV-1; conditions: for HIV in vitro Inhibition: inhibition of HIV-1 replication in vitro (HIV-1 strains and HIV-1 primary isolates)
Description: To prepare HIV infected cells for the in vitro assay of hCG preparations and β-hCG peptides and derivatives, primary PBMCs, macrophages, and CD4^+ T cells isolated from peripheral blood and the H9 human T cell line, were acutely or chronically infected with 8 different HIV-1 strains: 4 cell line adapted viruses, namely the macrophage tropic Ba-L strain (Gartner et al., 1986, Science 233:215-219) and the CD4^+ T cell tropic MN, RF, and IIIB strains (10^5 TCID50/ml) (Popovic et al., 1984, Science […]; Gallo et al.; 1984, Science 224:500-503); 2 isolates, Ju1083 and G3, from Nigerian AIDS patients passed once in a CD4^+ T cell line (Sub-T1); and 2 primary (“clinical”) isolates from AIDS patients from Trinidad which were never passed in any cell line and were used at a titer of 7.5×10^4TCID50/ml. In all experiments; HIV1 (10^5 TCID50/ml) was added to the cells(10^6 cells/ml) for a 2 hour incubation after which the virus infected cells were washed with 10 ml phosphate buffered saline (PBS) three times to eliminate extra cellular virus. The test inhibitor, i.e. the hCG or β-hCG peptide preparation was then added and the cells were incubated with the test inhibiter for 9 to 10 days with serial sampling. Cultures were assayed for p24 antigen on days 3 to 10.
Peptides of the α- and β-subunits (0.05 to 50 nmoles/ml), native α chain preparation, and various crude preparations of the native hCG heterodimer (0.01 to 1,000 IU) and the native β-hCG subunit (100 to 1,000 μg) were tested for effects on HIV-1 replication in acutely infected cells-by measuring change in viral antigen levels in response to the above noted preparations (FIGS. 4A-D and Table 3).
The fractions were then tested for anti-HIV, anti-KS and pro-hematopoietic activities in vitro. To assay for inhibition of HIV-1 replication in vitro, the HIV-1 […] viral strain was used to infect PBMCs and PM-1 cells (derived from the HUT-78 T-cell lymphoma cell line) at 10^3 TCID50/ml as described in detail herein.

[4] = tested on: KS Y-1 and KS-SLK cells; assay: Kaposi's Sarcoma clonogenic assay in cultured cells; format: cell-based, human; conditions: for inhibition of KS cell growth in clonogenic assays (in words): KS Y-1 and KS SLK; for KS in vitro: inhibition of Kaposi's Sarcoma cell growth in vitro in cultured cells
Procedure: Briefly, the KS Y-1 cells were obtained from mononuclear cells isolated from pleural effusion of an AIDS patient with KS in the lungs. After the depletion of T lymphocytes, monocytes/macrophages and fibroblasts using monoclonal antibodies against CD2, CD3, CD4, CD8, CD10 and CD14 membrane antigens and baby rabbit complement, the cells were cultured in the absence of exogenous growth factors to select for transformed cells. […] Clonogenic assays were performed by seeding the KS Y-1 or KS-SLK cells in methylcellulose (0.8%, v/v), incubating the cells for 10 days in the presence or absence of the hCC, β-hCG or β-hCG peptide preparations and then counting the number of well-formed colonies of triplicate wells formed after seeding with 5×10^4 cells.
To assay for activity against Kaposi's sarcoma cell growth in vitro, the clonogenic assay described herein was used with the KS Y-1 and KS-SLK cultured Kaposi's Sarcoma cell lines,.

[5] = tested on: HIV RNA and protein expression; assay: HIV RNA and protein expression in HIV-1 transgenic mice; format: in vivo; conditions: for inhibition of HIV RNA and protein expression: inhibition of HIV RNA and protein expression in HIV-1 transgenic mice; for HIV-1 gene / protein expression in transgenic mice (in words): pups dosed via mother's milk
Description: The HIV-1 transgenic mice used for this study contain 7.4 kb of foreign DNA, including 5.1 kb of the HIV-1 proviral genome deleted in the gag and pol genes and 2.3 kb of vector (Dickie et al., 1991, Virology 185:109-119). […] In addition, these mice develop severe hyperkeratotic skin lesions with marked expression of gp 120 and nef genes (Kopp et al., 1993, AIDS Res. Hum. Retroviruses 9:267-275; Vasli et al., 1994, AIDS Res. Hum. Retroviruses 10:1241-1250).
Heterozygous transgenic mothers were treated with the hCG preparation subcutaneously twice weekly. Pups received hCG via the mother's milk.
Gene expression was assayed in total RNA extracted from the skin of Tg26 mice with RNAzol. One microgram of RNA was reverse transcribed into cDNA using random hexamer primers and […] reverse transcriptase (Life Technologies, MD) in a final volume of 30 μl. One tenth of the cDNA reactions were used for PCR amplification of various HIV gene sequences (env, tat, rev, nef and vif). In addition, glyceraldehyde 3-phosphate dehydrogenase (GAPHD) mRNA was amplified for each sample for normalization. Following 25 cycles of amplification, 10% of the PCR product was resolved by electrophoresis through 2% agarose gels and processed for Southern hybridization using FITC-labeled oligonucleotide probes complimentary to internal sequences of the amplicons. Detection was performed by chemiluminescence (Amersham) and relative mRNA levels determined by densitometry after normalization with GAPDH mRNA levels.
Finally, certain fractions were tested for their ability to increase survival, promote weight gain and reduce HIV-1 gene expression in HIV-1 transgenic mice as described herein.

Substance	KS in vivo [1]	effect on KS tumors in mice (in words) [1]	promotion of hematopoiesis (in words) [2]	Pro-hematopoiesis in vitro Enhancement [2]	inhibition of HIV-1 infection/replication in vitro (in words) [3]	HIV in vitro Inhibition [3]	inhibition of KS cell growth in clonogenic assays (in words) [4]	KS in vitro [4]	inhibition of HIV RNA and protein expression [5]	HIV-1 gene / protein expression in transgenic mice (in words) [5]
1. 109-119: β-hCG amino acids 109-119 (SEQ ID NO:7) (TCDDPRFQDSS)	+ (“+” represents greater than 15% effect)	some anti-KS activity	directly promoted	+ (“+” represents greater than 15% effect)	inhibit HIV-1 replication in vitro	+ (“+” represents greater than 15% effect)	strongest anti-tumor effects	+ (“+” represents greater than 15% effect)	–	–
2. 109-145: β-hCG amino acids 109-145 (SEQ ID NO:25) (TCDDPRFQDSSSSKAPPPSLPSPSRLPGPSDTPILPQ)	+ (“+” represents greater than 15% effect)	some anti-KS activity	–	+ (“+” represents greater than 15% effect)	inhibited HIV-1 replication	+ (“+” represents greater than 15% effect)	strongest anti-tumor effects	+ (“+” represents greater than 15% effect)	–	–
5. 47-57::108-119: β-hCG 47-57 linked at the C-terminus to the N-terminus of 108-119 (SEQ ID NO:32) (GVLPALPQVVCLTCDDPRFQDSS)	+++ (“+++” represents greater than 70% effect)	significant anti-KS activity	–	–	inhibit HIV-1 replication in vitro	++ (“++” represents greater than 40% effect)	strongest anti-tumor effects	++ (“++” represents greater than 40% effect)	++ (“++” represents greater than 40% effect)	–
8. 41-54: β-hCG amino acids 41-54 (SEQ ID NO:3) (MTRVLQGVLPALPQ)	− (“−” represents less than 10% effect)	–	–	− (“−” represents less than 10% effect)	–	− (“−” represents less than 10% effect)	–	− (“−” represents less than 10% effect)	− (“−” represents less than 10% effect)	–
9. 38-57: β-hCG amino acids 38-57 (CPTMTRVLQGVLPALPQVVC; UniProt P0DN86 58-77, looked up, fragment)	− (“−” represents less than 10% effect)	–	–	− (“−” represents less than 10% effect)	–	− (“−” represents less than 10% effect)	–	− (“−” represents less than 10% effect)	–	–
13. 6-16: β-hCG amino acids 6-16 (RPRCRPINATL; UniProt P0DN86 26-36, looked up, fragment)	− (“−” represents less than 10% effect)	–	–	− (“−” represents less than 10% effect)	–	− (“−” represents less than 10% effect)	–	− (“−” represents less than 10% effect)	− (“−” represents less than 10% effect)	–
30. 37-55: β-hCG amino acids 37-55 as printed; probably 47-55 (YCPTMTRVLQGVLPALPQV; UniProt P0DN86 57-75, looked up, fragment)	+ (“+” represents greater than 15% effect)	–	–	+ (“+” represents greater than 15% effect)	–	+ (“+” represents greater than 15% effect)	–	+ (“+” represents greater than 15% effect)	+ (“+” represents greater than 15% effect)	–
35. 1-15: α-hCG amino acids 1-15 (APDVQDCPECTLQEN; UniProt P01215 25-39, looked up, fragment)	− (“−” represents less than 10% effect)	–	–	− (“−” represents less than 10% effect)	–	–	–	− (“−” represents less than 10% effect)	–	–
47-55: β-hCG amino acids 47-55 (SEQ ID NO:20) (GVLPALPQV)	–	some anti-KS activity	pro-hematopoietic effect	–	inhibited HIV-1 replication	–	–	–	–	elicited inhibition
CVAQPGPQVLLVLC (cysteine pairing not given here) [11. Scrambled 45-57]	–	–	–	–	inhibitory effect	++ (“++” represents greater than 40% effect)	exhibited activity	++ (“++” represents greater than 40% effect)	–	some inhibition
Cys-Val-Ala-Gln-Gly-Val-Leu-Pro-Ala-Leu-Pro-Gln-Val-Val-Cys (CVAQGVLPALPQVVC; disulfide 1-15 (inferred)) [12. Scrambled circ. 44-57]	–	–	–	− (“−” represents less than 10% effect)	–	− (“−” represents less than 10% effect)	–	− (“−” represents less than 10% effect)	–	no inhibitory effect
